Data taken from US20180200257A1, “METHODS FOR THE TREATMENT OF INFLAMMATORY DISORDERS” (Galapagos NV, priority 2015, published 2018).

System: Subjects With Active Crohn's Disease With Evidence of Mucosal Ulceration
Test: Study 3 - SES-CD endoscopic scores
Assay type: in vivo, human
Conditions: 200 mg, LOCF; for Deep remission (CDAI score < 150 points, SES-CD score ≤ 4, ulcerated subscore ≤ 1 in all 5 segments) / Endoscopic remission (SES-CD % improvement ≤ 4, ulcerated subscore ≤ 1 in all 5 segments) / Endoscopic response (SES-CD % improvement ≥ 50) / Mucosal healing (SES-CD % = 0): 10 weeks
Source text: Double-Blind, Randomized, Placebo-Controlled, Multi-Centre Study to Investigate the Efficacy and Safety of Compound 1 in Subjects With Active Crohn's Disease With Evidence of Mucosal Ulceration. This is a double-blind, randomized, placebo-controlled, multi-centre Phase 2 study to investigate the efficacy and safety of Compound 1 administered once daily for the treatment of active CD with evidence of mucosal ulceration. The pharmacokinetics (including a PK substudy) and pharmacodynamics of Compound 1 and metabolite in CD will also be characterised. A total of 180 eligible subjects will be randomized to receive Compound 1 or placebo in addition to their stable background treatment (eg, corticosteroids, aminosalicylates, or CD-related antibiotics). The study will consist of 2 parts, with total treatment duration of 20 weeks. Randomization in Part 1 will be stratified according the subject's previous anti-TNF exposure/response, CRP level at Screening, and oral corticosteroid use at visit Day −1. After the first 10 weeks of treatment in Part 1, patients will be re-randomized for Part 2 as shown in the diagram below and will be stratified according to the subject's clinical response, previous anti-TNF exposure/response, and oral corticosteroid use at visit Day -1. [table] For the evaluation of disease severity the Crohn's Disease Index of Severity (CDEIS), and the Simple Endoscopic Score for Crohn's Disease (SES-CD) may be used. These are validated scores for the measurement of endoscopic findings, (Sipponen et al, 2010). For the SES-CD, four endoscopic variables in the five segments are scored from 0-3: Variable “presence and size of ulcers” is scored 0 when no ulcers are present, small ulcers (diameter 0.1-0.5 cm) are scored 1, medium-sized ulcers (diameter 0.5-2 cm) 2, and large ulcers (>2 cm) 3. Variable “extent of ulcerated surface” is scored 0 when no ulcers were present, 1 when extent was <10%, 2 when extent is 10%-30%, and 3 when it is >30%. The variable extent of affected surface is scored 0 if none, 1 when <50%, 2 when 50%-75%, and 3 when >75%. The presence and type of narrowings is scored 0 when no narrowings are present, a single passable narrowing is scored 1, multiple passable narrowings are scored 2, and a nonpassable narrowing is scored 3.

[1] = Anti-TNF experienced non-responders
[2] = baseline corticosteroid use: with steroids
[3] = baseline corticosteroid use: without steroids

## O=C(Nc1nc2cccc(-c3ccc(CN4CCS(=O)(=O)CC4)cc3)n2n1)C1CC1 [Compound 1, cyclopropanecarboxylic acid {5-[4-(1,1-dioxo-thiomorpholin-4-ylmethyl)-phenyl]-[1,2,4]triazolo[1,5-a]pyridin-2-yl}-amide]
Anti-TNF Naïve
  Deep remission (CDAI score < 150 points, SES-CD score ≤ 4, ulcerated subscore ≤ 1 in all 5 segments): 0%
  Endoscopic remission (SES-CD % improvement ≤ 4, ulcerated subscore ≤ 1 in all 5 segments): 16%
  Endoscopic response (SES-CD % improvement ≥ 50): 28%
  Mucosal healing (SES-CD % = 0): 0%
[1]
  Deep remission (CDAI score < 150 points, SES-CD score ≤ 4, ulcerated subscore ≤ 1 in all 5 segments): 6%
  Endoscopic remission (SES-CD % improvement ≤ 4, ulcerated subscore ≤ 1 in all 5 segments): 12%
  Endoscopic response (SES-CD % improvement ≥ 50): 23%
  Mucosal healing (SES-CD % = 0): 1%
[2]
  Deep remission (CDAI score < 150 points, SES-CD score ≤ 4, ulcerated subscore ≤ 1 in all 5 segments): 0%
  Endoscopic remission (SES-CD % improvement ≤ 4, ulcerated subscore ≤ 1 in all 5 segments): 12%
  Endoscopic response (SES-CD % improvement ≥ 50): 22%
  Mucosal healing (SES-CD % = 0): 0%
[3]
  Deep remission (CDAI score < 150 points, SES-CD score ≤ 4, ulcerated subscore ≤ 1 in all 5 segments): 5%
  Endoscopic remission (SES-CD % improvement ≤ 4, ulcerated subscore ≤ 1 in all 5 segments): 15%
  Endoscopic response (SES-CD % improvement ≥ 50): 28%
  Mucosal healing (SES-CD % = 0): 5%
overall
  Deep remission (CDAI score < 150 points, SES-CD score ≤ 4, ulcerated subscore ≤ 1 in all 5 segments): 8%
  Endoscopic remission (SES-CD % improvement ≤ 4, ulcerated subscore ≤ 1 in all 5 segments): 14%
  Endoscopic response (SES-CD % improvement ≥ 50): 25%
  Mucosal healing (SES-CD % = 0): 2%
Screening CRP ≤ 10 ml/L
  Deep remission (CDAI score < 150 points, SES-CD score ≤ 4, ulcerated subscore ≤ 1 in all 5 segments): 10%
  Endoscopic remission (SES-CD % improvement ≤ 4, ulcerated subscore ≤ 1 in all 5 segments): 16%
  Endoscopic response (SES-CD % improvement ≥ 50): 23%
  Mucosal healing (SES-CD % = 0): 3%
Screening CRP ≥ 10 mg/L
  Deep remission (CDAI score < 150 points, SES-CD score ≤ 4, ulcerated subscore ≤ 1 in all 5 segments): 0%
  Endoscopic remission (SES-CD % improvement ≤ 4, ulcerated subscore ≤ 1 in all 5 segments): 0%
  Endoscopic response (SES-CD % improvement ≥ 50): 28%
  Mucosal healing (SES-CD % = 0): 0%
Baseline
  SES-CD mean, baseline: 14.2
Week 10
  SES-CD mean CFB, W 10: −2.6
  SES-CD mean, W 10: 11.6
